Assay results taken from patent publication US10772327B2, “Herbicide composition containing isopropylamine caprylate” (HUNAN AGRICULTURAL BIOTECHNOLOGY RESEARCH INSTITUTE, priority 2018, dated 2020).

Columns and labels:
Experiment in all cases: Indoor test for herbicidal activity, stem and leaf spray on potted weeds
Settings in all cases: Day 7, fresh weight of above-ground portion
Ludwigia prostrata = test system: Ludwigia prostrata
Echinochloa crusgalli = test system: Echinochloa crusgalli
Xanthium sibiricum = format: in vivo
Beckmannia syzigachne = format: in vivo
Poa annua = format: in vivo
Myosoton aquaticum = format: in vivo
Stellaria media = format: in vivo
Eleocharis yokoscensis = format: in vivo
Cardamine hirsuta = format: in vivo
Veronica persica = format: in vivo
Conyza candesis = format: in vivo
[1] = listed as glyphosate isopropylamine
[2] = listed as glyphosate isopropylamine salt
[3] = listed as isopropylamine caprylate

CCCCCCCC(=O)O [Caprylic acid]
ED50 (95% confidence interval of ED50) (Ludwigia prostrata): 12.52 (10.66-14.43) mg/mL | ED90 (95% confidence interval of ED90) (Ludwigia prostrata): 96.04 (85.15-108.33) mg/mL | ED50 (95% confidence interval of ED50) (Ludwigia prostrata; listed as caprylic acid): 12.52 mg/mL | ED50 (95% confidence interval of ED50) (Echinochloa crusgalli): 14.07 (13.66-14.48) mg/mL | ED90 (95% confidence interval of ED90) (Echinochloa crusgalli): 108.65 (92.83-124.80) mg/mL | ED50 (95% confidence interval of ED50) (Echinochloa crusgalli; listed as caprylic acid): 14.07 mg/mL

CC(C)N.O=C(O)CNCP(=O)(O)O [Glyphosate isopropylamine]
ED50 (95% confidence interval of ED50) (Ludwigia prostrata): 46.79 (41.87-52.27) mg/mL | ED90 (95% confidence interval of ED90) (Ludwigia prostrata): 321.75 (271.72-380.99) mg/mL | ED50 (95% confidence interval of ED50) (Ludwigia prostrata; [1]): 46.79 mg/mL | ED50 (95% confidence interval of ED50) (Ludwigia prostrata; [2]): 46.79 mg/mL | ED50 (95% confidence interval of ED50) (Echinochloa crusgalli): 52.18 (40.13-65.02) mg/mL | ED90 (95% confidence interval of ED90) (Echinochloa crusgalli): 384.59 (360.35-420.77) mg/mL | ED50 (95% confidence interval of ED50) (Echinochloa crusgalli; [1]): 52.18 mg/mL | ED50 (95% confidence interval of ED50) (Echinochloa crusgalli; [2]): 52.18 mg/mL

CCCCCCCC(=O)O [Isopropylamine caprylate, isopropylamine caprylate]
ED50 (95% confidence interval of ED50) (Xanthium sibiricum): 0.64 (0.22-1.03) mg/mL | ED90 (95% confidence interval of ED90) (Xanthium sibiricum): 19.11 (10.80-31.14) mg/mL | ED50 (95% confidence interval of ED50) (Beckmannia syzigachne): 3.07 (1.66-8.48) mg/mL | ED90 (95% confidence interval of ED90) (Beckmannia syzigachne): 30.65 (24.12-44.50) mg/mL | ED50 (95% confidence interval of ED50) (Ludwigia prostrata): 0.52 (0.35-0.61) mg/mL | ED90 (95% confidence interval of ED90) (Ludwigia prostrata): 13.21 (9.17-18.31) mg/mL | ED50 (95% confidence interval of ED50) (Ludwigia prostrata; [3]): 0.52 mg/mL | ED50 (95% confidence interval of ED50) (Poa annua): 3.07 (2.66-10.48) mg/mL | ED90 (95% confidence interval of ED90) (Poa annua): 28.65 (22.83-40.82) mg/mL | ED50 (95% confidence interval of ED50) (Myosoton aquaticum): 0.18 (0.04-0.25) mg/mL | ED90 (95% confidence interval of ED90) (Myosoton aquaticum): 16.47 (8.35-20.23) mg/mL | ED50 (95% confidence interval of ED50) (Stellaria media): 0.80 (0.47-1.77) mg/mL | ED90 (95% confidence interval of ED90) (Stellaria media): 16.69 (7.91-26.98) mg/mL | ED50 (95% confidence interval of ED50) (Eleocharis yokoscensis): 3.23 (2.00-9.55) mg/mL | ED90 (95% confidence interval of ED90) (Eleocharis yokoscensis): 24.11 (18.74-40.82) mg/mL | ED50 (95% confidence interval of ED50) (Cardamine hirsuta): 0.90 (0.11-2.46) mg/mL | ED90 (95% confidence interval of ED90) (Cardamine hirsuta): 18.36 (10.74-35.88) mg/mL | ED50 (95% confidence interval of ED50) (Echinochloa crusgalli): 4.07 (2.66-10.48) mg/mL | ED90 (95% confidence interval of ED90) (Echinochloa crusgalli): 28.65 (22.83-40.82) mg/mL | ED50 (95% confidence interval of ED50) (Echinochloa crusgalli; [3]): 4.07 mg/mL | ED50 (95% confidence interval of ED50) (Veronica persica): 0.78 (0.28-2.35) mg/mL | ED90 (95% confidence interval of ED90) (Veronica persica): 9.16 (5.09-22.65) mg/mL | ED50 (95% confidence interval of ED50) (Conyza candesis): 0.74 (0.25-1.05) mg/mL | ED90 (95% confidence interval of ED90) (Conyza candesis): 15.54 (8.74-20.93) mg/mL
